Data on eleven compounds can be found in PubChem BioAssay (NCI).

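How tested: cells in 96-well plates exposed to compound for 48 hours at five concentrations. GI50 = concentration required for 50% inhibition of growth. TGI marks complete inhibition of growth.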

Some test systems named below: T-47D breast; ACHN renal; HL-60(TB) leukemia; COLO 205 colon; SK-MEL-5 melanoma; M14 melanoma; UO-31 renal.
Assay in all cases: NCI tumour cell line growth inhibition, 48 h

Consider `COc1cc2c3c(n(CCCI)c(=O)c2cc1OC)-c1cc2c(cc1C3=O)OCO2`, for which the GI50 in the assay with T-47D breast is > 100000 nM; in the assay on ACHN renal, 2140 nM; in the assay on HL-60(TB) leukemia, 1080 nM; in the assay with COLO 205 colon it was 9170 nM; in the assay on SK-MEL-5 melanoma it was 1810 nM; in the assay on M14 melanoma, 3050 nM. Moreover, the GI50 with UO-31 renal is 2530 nM. Moreover, the TGI in the assay on T-47D breast is > 100 µM; with ACHN renal it was 8.34 µM; in the assay on HL-60(TB) leukemia it was > 100 µM; with COLO 205 colon it was > 100 µM; in the assay with SK-MEL-5 melanoma it was 8.5 µM; in the assay with M14 melanoma, > 100 µM. Moreover, the TGI in the assay on UO-31 renal was > 100 µM.

For the compound `COc1ccc2c(c1)C(=O)c1c-2c(Nc2ccc(Cl)cc2)nc2ccccc12`, the GI50 with T-47D breast was 17800 nM; with ACHN renal it was 4230 nM; in the assay with HL-60(TB) leukemia, > 100000 nM; in the assay on COLO 205 colon it was 34800 nM; in the assay with SK-MEL-5 melanoma, 2840 nM; with M14 melanoma, 31000 nM. Moreover, in the assay on UO-31 renal, the GI50 was 25800 nM. Also, the TGI is > 100 µM with T-47D breast; 16.3 µM with ACHN renal; > 100 µM with HL-60(TB) leukemia; > 100 µM in the assay on COLO 205 colon; 13.2 µM in the assay on SK-MEL-5 melanoma; > 100 µM in the assay with M14 melanoma. The TGI with UO-31 renal was > 100 µM.

As for `Nc1nc(-c2ccccc2)nc(N)c1N=O`, the GI50 was 4630 nM in the assay with T-47D breast; 4000 nM with ACHN renal; 19200 nM with HL-60(TB) leukemia; 2590 nM with COLO 205 colon; 8210 nM in the assay on SK-MEL-5 melanoma; 5680 nM in the assay on M14 melanoma. The GI50 in the assay with UO-31 renal is 10000 nM. The TGI in the assay on T-47D breast is 23.1 µM; in the assay on ACHN renal, 14.1 µM; in the assay on HL-60(TB) leukemia, 88.9 µM; in the assay with COLO 205 colon, 8.45 µM; with SK-MEL-5 melanoma, 20.8 µM; in the assay with M14 melanoma, 19.5 µM. Also, in the assay on UO-31 renal, the TGI was 29.2 µM.

`Cc1cccc2c(=O)c3c(sc12)c(NCCNCCO)nc1ccccc13`: the GI50 was 1330 nM with T-47D breast; 1500 nM in the assay on ACHN renal; 1890 nM in the assay on HL-60(TB) leukemia; 1560 nM with COLO 205 colon; 1650 nM in the assay on SK-MEL-5 melanoma; 1680 nM in the assay on M14 melanoma. The GI50 in the assay with UO-31 renal was 1090 nM. For the same compound, the TGI in the assay with T-47D breast turned out to be 3.13 µM; in the assay on ACHN renal it was 2.83 µM; in the assay on HL-60(TB) leukemia it was 3.59 µM; in the assay on COLO 205 colon, 3.35 µM; in the assay on SK-MEL-5 melanoma it was 3.08 µM; in the assay with M14 melanoma, 3.37 µM. Further, the TGI in the assay on UO-31 renal turned out to be 2.34 µM.

Take `Cc1c(COc2cc(OCc3cccc(C#N)c3)c(CN3C[C@H](O)C[C@@H]3C(=O)O)cc2Cl)cccc1-c1ccc2c(c1)OCCO2`: the GI50 in the assay on T-47D breast was 19800 nM; in the assay on ACHN renal it was 17200 nM; in the assay with COLO 205 colon, 20700 nM; with SK-MEL-5 melanoma it was 2140 nM; with M14 melanoma, 13200 nM; with UO-31 renal, 16600 nM. For the same compound, the TGI in the assay on T-47D breast amounted to 47 µM; in the assay with ACHN renal it was 31 µM; with COLO 205 colon it was 39.7 µM; with SK-MEL-5 melanoma, 5.13 µM; in the assay on M14 melanoma, 27.1 µM; with UO-31 renal, 30.2 µM.

In the case of `Cc1cc(N(CCNc2ccnc3cc(Cl)ccc23)Cc2ccco2)nc(Cl)n1`, the GI50 is 1520 nM in the assay on T-47D breast; 1650 nM with ACHN renal; 1710 nM with COLO 205 colon; 1720 nM in the assay on SK-MEL-5 melanoma; 1600 nM with M14 melanoma; 1490 nM in the assay with UO-31 renal. In addition, the TGI in the assay with T-47D breast worked out at 3.58 µM; in the assay on ACHN renal it was 3.02 µM; in the assay with COLO 205 colon it was 3.3 µM; in the assay on SK-MEL-5 melanoma, 3.13 µM; with M14 melanoma, 3.01 µM; in the assay on UO-31 renal it was 2.89 µM.

`N#CSCC1CC(O)(c2ccccc2)CC(c2ccc(F)cc2)O1` (configuration not stated): the GI50 with T-47D breast is 1780 nM; with ACHN renal, 2100 nM; in the assay on COLO 205 colon it was 2020 nM; in the assay on SK-MEL-5 melanoma it was 1740 nM; in the assay on M14 melanoma it was 1620 nM; with UO-31 renal, 1820 nM. The TGI with T-47D breast amounted to 4.98 µM; with ACHN renal, 6.43 µM; with COLO 205 colon it was 4.25 µM; with SK-MEL-5 melanoma, 3.26 µM; in the assay with M14 melanoma, 3.13 µM; in the assay with UO-31 renal, 6.03 µM.

For the compound `COC(=O)CCCC(=O)O`, the TGI in the assay on T-47D breast, with ACHN renal, with COLO 205 colon, in the assay with SK-MEL-5 melanoma, with M14 melanoma and in the assay with UO-31 renal was > 100 µM throughout.

On to `COc1ccc(OC)c(/C=C(/C)[N+](=O)[O-])c1`, for which the GI50 in the assay with T-47D breast was 1160 nM; in the assay with ACHN renal it was 1770 nM; in the assay on COLO 205 colon, 1920 nM; in the assay with SK-MEL-5 melanoma, 3470 nM; with M14 melanoma, 2140 nM; in the assay on UO-31 renal it was 1420 nM. The TGI with T-47D breast was determined as 2.87 µM; in the assay on ACHN renal, 3.29 µM; in the assay with COLO 205 colon it was 3.63 µM; in the assay with SK-MEL-5 melanoma it was 13 µM; in the assay on M14 melanoma, 4.24 µM; in the assay with UO-31 renal it was 2.8 µM.

Take `Oc1[nH]c2ccc(Cl)cc2c1/C=c1/ccc2c(c1)N=C(c1ccc(F)cc1)N=2`: the GI50 is 2230 nM in the assay on T-47D breast; 3190 nM with ACHN renal; 2760 nM in the assay on HL-60(TB) leukemia; 2320 nM with COLO 205 colon; 1520 nM in the assay with M14 melanoma; 2300 nM with UO-31 renal. In addition, the TGI came to 6.17 µM in the assay with T-47D breast; 11.9 µM with ACHN renal; 7.83 µM with HL-60(TB) leukemia; 5.23 µM in the assay with COLO 205 colon; 2.98 µM in the assay with M14 melanoma; 11 µM in the assay with UO-31 renal.

`CN(C)c1ccc(Nc2cc(-c3cccc(OC(F)(F)F)c3)nc3ccc(N4CCCC4)cc23)cc1`: the GI50 is 2050 nM in the assay with ACHN renal; 2560 nM with COLO 205 colon; 1820 nM with SK-MEL-5 melanoma; 1700 nM with M14 melanoma; 1770 nM in the assay with UO-31 renal. For the same compound, the TGI in the assay with ACHN renal was 4.36 µM; in the assay on COLO 205 colon, 9.02 µM; in the assay on SK-MEL-5 melanoma it was 3.3 µM; with M14 melanoma, 3.32 µM; in the assay on UO-31 renal it was 3.17 µM.
